According to publication PMC10104807, “Modulation of tau tubulin kinases (TTBK1 and TTBK2) impacts ciliogenesis” (Scientific Reports, 2023):

What was measured:
Experiment in all cases: Eurofins enzymatic radiometric kinase assay
Type in all cases: biochemical
Conditions in all cases: ATP at Km, duplicate
TAOK2 = molecular target: T1, TAOK2 (Homo sapiens, UniProt Q9UL54)
T1 construct: purchased Eurofins
T1 sequence (Q9UL54 1-1235): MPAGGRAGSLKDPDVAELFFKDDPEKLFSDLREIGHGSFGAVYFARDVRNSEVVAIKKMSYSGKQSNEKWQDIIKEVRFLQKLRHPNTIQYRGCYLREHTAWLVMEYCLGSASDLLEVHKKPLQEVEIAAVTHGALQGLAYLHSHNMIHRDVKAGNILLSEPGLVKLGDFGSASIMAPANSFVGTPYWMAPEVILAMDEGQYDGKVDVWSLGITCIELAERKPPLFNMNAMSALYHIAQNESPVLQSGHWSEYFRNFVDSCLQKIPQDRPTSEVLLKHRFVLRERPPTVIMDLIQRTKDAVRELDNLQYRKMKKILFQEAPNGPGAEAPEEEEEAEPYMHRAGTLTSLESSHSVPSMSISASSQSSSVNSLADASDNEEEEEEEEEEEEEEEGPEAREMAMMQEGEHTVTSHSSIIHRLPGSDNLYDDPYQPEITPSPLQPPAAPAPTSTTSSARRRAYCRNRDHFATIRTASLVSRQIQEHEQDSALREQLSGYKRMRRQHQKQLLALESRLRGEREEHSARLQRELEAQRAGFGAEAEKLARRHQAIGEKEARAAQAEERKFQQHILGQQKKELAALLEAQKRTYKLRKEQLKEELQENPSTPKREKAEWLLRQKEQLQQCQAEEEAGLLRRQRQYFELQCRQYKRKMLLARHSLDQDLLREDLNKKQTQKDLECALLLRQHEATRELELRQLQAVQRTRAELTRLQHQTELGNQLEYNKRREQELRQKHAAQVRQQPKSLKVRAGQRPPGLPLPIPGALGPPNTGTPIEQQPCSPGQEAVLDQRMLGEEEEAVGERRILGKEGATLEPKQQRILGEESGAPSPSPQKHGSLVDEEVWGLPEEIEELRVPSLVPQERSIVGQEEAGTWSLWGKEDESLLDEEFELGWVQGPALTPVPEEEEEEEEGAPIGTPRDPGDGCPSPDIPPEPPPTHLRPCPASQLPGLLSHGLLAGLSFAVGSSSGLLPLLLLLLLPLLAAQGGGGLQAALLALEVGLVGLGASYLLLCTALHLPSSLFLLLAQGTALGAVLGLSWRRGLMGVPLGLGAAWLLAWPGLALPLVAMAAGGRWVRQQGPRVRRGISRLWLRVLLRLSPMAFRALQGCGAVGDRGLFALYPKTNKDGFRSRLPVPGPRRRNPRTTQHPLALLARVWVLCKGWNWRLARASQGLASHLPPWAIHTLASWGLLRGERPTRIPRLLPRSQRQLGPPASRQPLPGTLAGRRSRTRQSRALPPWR
Procedure: (§1) The column labeled “# < 10 PoC in enzyme panel” in Table 1 reports the number of kinases in this 17-member panel inhibited > 90% by each analog.
(§2) Details about the substrate used, protein constructs, controls, and assay protocol for these kinase assays are available at the Eurofins website: https://www.eurofinsdiscoveryservices.com. Reaction Biology Corp. (RBC) radiometric HotSpot kinase assays were carried out at the Km value for ATP in dose–response (10-pt curve) format for MYLK4, RIPK5, and YSK4 in Table S2. Details about the substrate used, protein constructs, controls, and assay protocol for these kinase assays are available at the RBC website: https://www.reactionbiology.com/list-kinase-targets-us-facility. SignalChem developed an ADP-Glo assay to test for enzymatic inhibition of PIKfyve in dose–response (10-pt curve) format in duplicate.

TSSK1 = molecular target: T2, TSSK1 (Homo sapiens, UniProt Q9BXA7)
T2 construct: purchased Eurofins (radiometric) / Eurofins DiscoverX scanMAX / Reaction Biology / SignalChem
T2 sequence (Q9BXA7 1-367): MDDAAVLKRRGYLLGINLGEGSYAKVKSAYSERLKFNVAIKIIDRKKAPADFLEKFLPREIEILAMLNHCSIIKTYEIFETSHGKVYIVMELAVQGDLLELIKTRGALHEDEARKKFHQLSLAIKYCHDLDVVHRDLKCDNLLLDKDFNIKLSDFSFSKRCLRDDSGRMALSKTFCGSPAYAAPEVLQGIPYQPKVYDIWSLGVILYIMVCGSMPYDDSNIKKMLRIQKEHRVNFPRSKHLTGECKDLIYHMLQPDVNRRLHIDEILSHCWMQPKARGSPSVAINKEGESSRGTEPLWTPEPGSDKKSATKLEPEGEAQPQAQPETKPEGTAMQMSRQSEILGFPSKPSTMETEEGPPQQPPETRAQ
Procedure: as §1, §2

HIPK1 = molecular target: T3, HIPK1 (Homo sapiens, UniProt Q86Z02)
T3 construct: purchased Eurofins (radiometric) / Eurofins DiscoverX scanMAX / Reaction Biology / SignalChem
T3 sequence (Q86Z02 whole entry): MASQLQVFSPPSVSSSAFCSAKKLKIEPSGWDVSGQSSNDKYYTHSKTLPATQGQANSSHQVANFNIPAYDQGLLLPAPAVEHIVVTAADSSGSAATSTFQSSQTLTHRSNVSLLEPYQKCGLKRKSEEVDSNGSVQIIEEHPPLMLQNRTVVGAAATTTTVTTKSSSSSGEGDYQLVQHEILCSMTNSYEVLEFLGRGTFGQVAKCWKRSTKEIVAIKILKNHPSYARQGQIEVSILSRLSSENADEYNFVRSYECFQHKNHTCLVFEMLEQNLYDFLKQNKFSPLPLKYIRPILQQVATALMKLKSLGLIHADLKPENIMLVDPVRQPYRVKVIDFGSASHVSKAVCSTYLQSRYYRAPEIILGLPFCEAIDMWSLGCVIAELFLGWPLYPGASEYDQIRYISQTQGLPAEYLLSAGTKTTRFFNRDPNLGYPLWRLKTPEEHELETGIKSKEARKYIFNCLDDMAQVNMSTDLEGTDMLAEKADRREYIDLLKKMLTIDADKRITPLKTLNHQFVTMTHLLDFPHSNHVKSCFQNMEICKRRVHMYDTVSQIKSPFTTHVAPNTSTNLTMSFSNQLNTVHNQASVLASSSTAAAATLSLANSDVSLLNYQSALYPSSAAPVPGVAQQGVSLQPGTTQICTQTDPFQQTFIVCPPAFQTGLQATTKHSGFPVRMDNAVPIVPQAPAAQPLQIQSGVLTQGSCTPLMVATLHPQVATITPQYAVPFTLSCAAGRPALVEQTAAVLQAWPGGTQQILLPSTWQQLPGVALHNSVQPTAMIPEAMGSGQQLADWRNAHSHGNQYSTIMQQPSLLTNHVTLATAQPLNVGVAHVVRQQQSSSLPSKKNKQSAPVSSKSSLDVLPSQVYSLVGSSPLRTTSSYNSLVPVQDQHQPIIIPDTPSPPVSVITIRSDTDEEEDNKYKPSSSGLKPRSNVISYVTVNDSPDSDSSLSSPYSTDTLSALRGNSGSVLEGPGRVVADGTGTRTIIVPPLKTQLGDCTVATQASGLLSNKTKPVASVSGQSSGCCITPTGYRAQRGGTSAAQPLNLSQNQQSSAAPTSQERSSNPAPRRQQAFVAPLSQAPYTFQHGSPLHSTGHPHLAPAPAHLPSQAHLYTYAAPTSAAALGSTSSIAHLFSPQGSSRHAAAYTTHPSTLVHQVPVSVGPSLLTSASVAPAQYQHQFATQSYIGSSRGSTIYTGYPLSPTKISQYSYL
Procedure: as §1, §2

MAP4K5 = molecular target: T4, MAP4K5 (Homo sapiens, UniProt Q9Y4K4)
T4 construct: purchased Eurofins
T4 sequence (Q9Y4K4 whole entry): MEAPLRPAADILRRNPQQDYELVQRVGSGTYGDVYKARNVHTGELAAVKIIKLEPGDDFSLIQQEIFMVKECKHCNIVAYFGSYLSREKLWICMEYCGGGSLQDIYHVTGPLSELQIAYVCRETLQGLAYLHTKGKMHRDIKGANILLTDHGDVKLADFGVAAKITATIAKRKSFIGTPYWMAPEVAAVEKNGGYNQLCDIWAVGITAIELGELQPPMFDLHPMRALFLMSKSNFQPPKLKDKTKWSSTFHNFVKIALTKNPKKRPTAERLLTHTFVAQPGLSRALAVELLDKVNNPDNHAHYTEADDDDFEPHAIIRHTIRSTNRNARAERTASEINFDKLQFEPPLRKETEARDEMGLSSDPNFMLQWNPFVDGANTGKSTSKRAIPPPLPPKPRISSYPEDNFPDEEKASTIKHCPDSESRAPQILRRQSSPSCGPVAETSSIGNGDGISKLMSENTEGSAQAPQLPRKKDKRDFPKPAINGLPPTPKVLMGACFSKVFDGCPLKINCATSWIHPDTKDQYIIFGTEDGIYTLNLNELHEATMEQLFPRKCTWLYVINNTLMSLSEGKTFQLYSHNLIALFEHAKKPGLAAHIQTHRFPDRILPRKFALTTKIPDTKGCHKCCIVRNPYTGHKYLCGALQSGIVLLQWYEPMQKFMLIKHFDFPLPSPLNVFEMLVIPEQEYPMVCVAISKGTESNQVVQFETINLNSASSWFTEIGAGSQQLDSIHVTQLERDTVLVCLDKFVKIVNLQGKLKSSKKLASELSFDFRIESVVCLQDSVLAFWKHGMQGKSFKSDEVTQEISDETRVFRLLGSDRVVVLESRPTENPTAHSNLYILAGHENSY
Procedure: as §1, §2

TSSK2 = molecular target: T5, TSSK2 (Homo sapiens, UniProt Q96PF2)
T5 construct: purchased Eurofins (radiometric) / Eurofins DiscoverX scanMAX / Reaction Biology / SignalChem
T5 sequence (Q96PF2 1-358): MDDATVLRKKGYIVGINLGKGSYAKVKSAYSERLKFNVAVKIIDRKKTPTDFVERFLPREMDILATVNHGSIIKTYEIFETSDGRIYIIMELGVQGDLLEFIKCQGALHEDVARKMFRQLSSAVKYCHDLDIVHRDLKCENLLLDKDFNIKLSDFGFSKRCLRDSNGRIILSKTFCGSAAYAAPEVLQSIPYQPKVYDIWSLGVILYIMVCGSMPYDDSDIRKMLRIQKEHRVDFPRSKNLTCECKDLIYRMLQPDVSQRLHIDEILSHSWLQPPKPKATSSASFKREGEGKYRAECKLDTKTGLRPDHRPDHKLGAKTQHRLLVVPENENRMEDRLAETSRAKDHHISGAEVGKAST
Procedure: as §1, §2

TSSK4 = molecular target: T6, TSSK4 (Homo sapiens, UniProt Q6SA08)
T6 construct: purchased Eurofins (radiometric) / Eurofins DiscoverX scanMAX / Reaction Biology / SignalChem
T6 sequence (Q6SA08 1-328): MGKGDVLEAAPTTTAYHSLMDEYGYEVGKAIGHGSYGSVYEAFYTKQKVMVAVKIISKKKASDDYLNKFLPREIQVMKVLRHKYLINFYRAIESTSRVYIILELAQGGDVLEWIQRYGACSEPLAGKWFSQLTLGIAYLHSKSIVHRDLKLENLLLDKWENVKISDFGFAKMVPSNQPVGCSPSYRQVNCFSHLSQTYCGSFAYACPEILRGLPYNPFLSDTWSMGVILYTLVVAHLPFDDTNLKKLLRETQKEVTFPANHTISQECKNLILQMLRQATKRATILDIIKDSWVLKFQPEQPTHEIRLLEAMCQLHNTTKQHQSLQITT
Procedure: as §1, §2

PAK6 = molecular target: T7, PAK6 (Homo sapiens, UniProt Q9NQU5)
T7 construct: purchased Eurofins (radiometric) / Eurofins DiscoverX scanMAX / Reaction Biology / SignalChem
T7 sequence (Q9NQU5 whole entry): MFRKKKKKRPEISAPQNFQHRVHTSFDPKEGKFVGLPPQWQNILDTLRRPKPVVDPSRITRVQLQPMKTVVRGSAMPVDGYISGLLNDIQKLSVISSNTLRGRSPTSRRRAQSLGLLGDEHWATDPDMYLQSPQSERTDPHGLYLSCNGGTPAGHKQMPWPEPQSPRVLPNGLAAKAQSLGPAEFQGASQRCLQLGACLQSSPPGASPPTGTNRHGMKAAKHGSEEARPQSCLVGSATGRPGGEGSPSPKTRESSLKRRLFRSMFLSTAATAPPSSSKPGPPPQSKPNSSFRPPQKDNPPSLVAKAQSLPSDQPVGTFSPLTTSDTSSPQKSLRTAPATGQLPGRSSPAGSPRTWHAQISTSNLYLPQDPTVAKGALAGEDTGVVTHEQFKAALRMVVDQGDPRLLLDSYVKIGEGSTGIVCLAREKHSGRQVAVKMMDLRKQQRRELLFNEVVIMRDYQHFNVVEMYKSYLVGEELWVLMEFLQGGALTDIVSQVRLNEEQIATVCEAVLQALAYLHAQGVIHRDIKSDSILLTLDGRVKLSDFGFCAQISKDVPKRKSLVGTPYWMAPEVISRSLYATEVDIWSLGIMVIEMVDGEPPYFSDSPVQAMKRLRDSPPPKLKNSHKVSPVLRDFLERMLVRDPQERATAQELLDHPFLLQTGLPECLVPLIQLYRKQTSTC
Procedure: as §1, §2

SMILES | TAOK2 PoC at 1 μM (TAOK2) [PoC] | TSSK1 PoC at 1 μM (TSSK1) [PoC] | HIPK1 PoC at 1 μM (HIPK1) [PoC] | MAP4K5 PoC at 1 μM (MAP4K5) [PoC] | TSSK2 PoC at 1 μM (TSSK2) [PoC] | TSSK4 PoC at 1 μM (TSSK4) [PoC] | PAK6 PoC at 1 μM (PAK6) [PoC]
CC(C)(O)C#Cc1ccc2[nH]c3c(c2c1)-c1nc(N)ncc1CC3 [Compound 1] | 28 | 48 | 76 | 3 | 88 | 55 | 51
COC(C)(C)C#Cc1ccc2[nH]c3c(c2c1)-c1nc(N)ncc1CCC3 [Compound 11] | 44 | 89 | 96 | 9 | 86 | 101 | 92
CC(C)(O)C#Cc1ccc2[nH]cc(-c3ccnc(N)n3)c2c1 [Compound 3] | 12 | 30 | 87 | 1 | 78 | 78 | 40
CC(C)(O)C#Cc1ccc2[nH]c3c(c2c1)-c1nc(N)ncc1CCC3 [AMG28, reference compound] | 26 | 10 | 67 | 1 | 57 | 70 | 6
CC(C)(O)C#Cc1ccc2[nH]c3c(c2c1)-c1nc(N)ncc1CCCC3 [Compound 2] | 83 | 82 | 96 | 9 | 76 | 77 | 77
